In one assay the target is Estrogen receptor beta (Homo sapiens, UniProt Q92731).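 Further: recombinant ER-beta bound to coactivator SRC1 peptide in presence of estradiol agonist; inhibitors block coactivator peptide binding and lower the FRET signal.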
Assay [1] in a line: P. falciparum Dd2 growth inhibitors, dose response, SYBR Green, dry powder samples, set 9 (AID 1159568). Format: functional, cell-based.
Assay [2] has as its target T1, Apoptotic protease-activating factor 1 (Homo sapiens, UniProt O14727).
T1 sequence (O14727 whole entry): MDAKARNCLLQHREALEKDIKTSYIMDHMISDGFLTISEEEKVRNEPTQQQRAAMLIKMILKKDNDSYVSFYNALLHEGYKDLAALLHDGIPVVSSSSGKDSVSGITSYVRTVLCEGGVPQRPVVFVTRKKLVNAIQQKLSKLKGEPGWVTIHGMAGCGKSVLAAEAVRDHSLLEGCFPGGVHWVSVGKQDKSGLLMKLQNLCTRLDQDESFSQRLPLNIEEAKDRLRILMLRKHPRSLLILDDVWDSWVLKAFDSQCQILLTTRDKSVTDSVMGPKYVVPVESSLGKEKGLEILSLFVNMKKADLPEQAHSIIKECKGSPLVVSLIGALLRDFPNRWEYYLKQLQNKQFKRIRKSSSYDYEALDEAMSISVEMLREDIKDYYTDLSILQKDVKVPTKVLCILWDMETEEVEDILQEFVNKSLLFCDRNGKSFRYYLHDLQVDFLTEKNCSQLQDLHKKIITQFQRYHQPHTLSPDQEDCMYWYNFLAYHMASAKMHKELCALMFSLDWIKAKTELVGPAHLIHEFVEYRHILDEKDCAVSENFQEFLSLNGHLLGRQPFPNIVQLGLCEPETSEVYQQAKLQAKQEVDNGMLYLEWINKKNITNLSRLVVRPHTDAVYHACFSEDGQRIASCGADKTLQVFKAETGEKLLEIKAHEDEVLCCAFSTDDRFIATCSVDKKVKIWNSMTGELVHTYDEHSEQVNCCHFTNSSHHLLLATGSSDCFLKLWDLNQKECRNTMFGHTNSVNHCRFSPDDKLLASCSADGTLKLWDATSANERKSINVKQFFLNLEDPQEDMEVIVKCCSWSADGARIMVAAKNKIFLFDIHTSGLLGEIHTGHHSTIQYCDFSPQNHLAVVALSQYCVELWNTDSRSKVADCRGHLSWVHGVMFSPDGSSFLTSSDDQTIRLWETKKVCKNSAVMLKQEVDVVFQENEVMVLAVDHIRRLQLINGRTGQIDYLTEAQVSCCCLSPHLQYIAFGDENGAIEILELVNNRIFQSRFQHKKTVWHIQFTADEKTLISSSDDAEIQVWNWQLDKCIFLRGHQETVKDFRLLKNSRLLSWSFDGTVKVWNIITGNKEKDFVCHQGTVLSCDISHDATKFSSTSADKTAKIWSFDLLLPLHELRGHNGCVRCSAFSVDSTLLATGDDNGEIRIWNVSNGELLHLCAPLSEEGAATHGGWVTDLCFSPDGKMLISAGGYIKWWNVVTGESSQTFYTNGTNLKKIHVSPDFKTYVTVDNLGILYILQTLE
Format: functional.

Assay [3] is described as follows: P. falciparum Dd2 growth inhibitors, dose response, SYBR Green, cherry-picked samples (AID 1159567). The class given is functional, cell-based.
Assay [4] is described as follows: HepG2 cell cytotoxicity, dose response, cytotoxicity control, cherry-picked samples (AID 1159577). Format: functional, cell-based.
Assay [5] in a line: NIH:OVCAR-3 ovarian cancer cell cytotoxicity, dose response, PAX8 inhibitor project, plate reader, dry powder samples (AID 743044). Format: functional, cell-based.
The target in the next assay is Paired box protein Pax-8 (Homo sapiens, UniProt Q06710). Kind of assay: inhibitors of PAX8-driven TPO luciferase reporter, dose response, RMG-I cells, cherry-pick (AID 687027).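 Further: luciferase reporter driven by Pax8 target thyroperoxidase promoter measured by SteadyGlo luminescence.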 Format: functional, cell-based. Background: Reporter assays use an easily measured gene product as a stand-in for the process of interest.
Sequence of Paired box protein Pax-8 (Q06710 whole entry): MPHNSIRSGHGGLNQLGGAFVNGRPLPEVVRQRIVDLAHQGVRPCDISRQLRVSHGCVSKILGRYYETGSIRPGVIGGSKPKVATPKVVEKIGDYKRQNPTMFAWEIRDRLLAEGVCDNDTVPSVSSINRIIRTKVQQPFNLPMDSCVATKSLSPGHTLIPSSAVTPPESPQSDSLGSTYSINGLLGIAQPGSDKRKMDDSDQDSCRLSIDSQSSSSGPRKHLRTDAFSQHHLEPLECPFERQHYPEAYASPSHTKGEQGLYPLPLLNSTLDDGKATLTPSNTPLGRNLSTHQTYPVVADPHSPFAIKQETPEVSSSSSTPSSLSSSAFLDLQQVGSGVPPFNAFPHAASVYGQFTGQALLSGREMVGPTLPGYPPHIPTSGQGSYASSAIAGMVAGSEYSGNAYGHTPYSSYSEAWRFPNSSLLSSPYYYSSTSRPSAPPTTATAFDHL
The nature of assay [6]: microbe, parasite or virus in culture. The class given is functional. Conditions: Mycobacterium tuberculosis.
Assay [7] is described as follows: Luminescence Cell-Based Dose Retest to Confirm Inhibitors of Cancer Stem Cells. [Related pubchem assays (depositor defined):AID2717, AID2721]. Format: functional. Conditions: Homo sapiens.
Assay [8] in a line: P. falciparum Dd2 growth inhibitors, dose response, SYBR Green, dry powder samples (AID 1159566).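 Further: potency for growth inhibition with lower SYBR green DNA signal.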 The class given is functional, cell-based.
Assay [9] in a line: P. falciparum ATP4 D1247Y mutant growth inhibitors, dose response, NITD609-resistant line, SYBR Green, dry powder (AID 1159571).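 Further: parasites synchronized at ring stage by sorbitol before testing.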 Format: functional, cell-based.
Assay [10] can be described thus: P. falciparum 3D7-ScDHODH growth inhibitors, dose response, SYBR Green, dry powder samples (AID 1159570).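 Further: parasite growth measured after 72 hours of compound exposure.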 Format: functional, cell-based.
The target of assay [11] is T2, Histone-lysine N-methyltransferase NSD2 (Homo sapiens, UniProt O96028).
T2 sequence (O96028 whole entry): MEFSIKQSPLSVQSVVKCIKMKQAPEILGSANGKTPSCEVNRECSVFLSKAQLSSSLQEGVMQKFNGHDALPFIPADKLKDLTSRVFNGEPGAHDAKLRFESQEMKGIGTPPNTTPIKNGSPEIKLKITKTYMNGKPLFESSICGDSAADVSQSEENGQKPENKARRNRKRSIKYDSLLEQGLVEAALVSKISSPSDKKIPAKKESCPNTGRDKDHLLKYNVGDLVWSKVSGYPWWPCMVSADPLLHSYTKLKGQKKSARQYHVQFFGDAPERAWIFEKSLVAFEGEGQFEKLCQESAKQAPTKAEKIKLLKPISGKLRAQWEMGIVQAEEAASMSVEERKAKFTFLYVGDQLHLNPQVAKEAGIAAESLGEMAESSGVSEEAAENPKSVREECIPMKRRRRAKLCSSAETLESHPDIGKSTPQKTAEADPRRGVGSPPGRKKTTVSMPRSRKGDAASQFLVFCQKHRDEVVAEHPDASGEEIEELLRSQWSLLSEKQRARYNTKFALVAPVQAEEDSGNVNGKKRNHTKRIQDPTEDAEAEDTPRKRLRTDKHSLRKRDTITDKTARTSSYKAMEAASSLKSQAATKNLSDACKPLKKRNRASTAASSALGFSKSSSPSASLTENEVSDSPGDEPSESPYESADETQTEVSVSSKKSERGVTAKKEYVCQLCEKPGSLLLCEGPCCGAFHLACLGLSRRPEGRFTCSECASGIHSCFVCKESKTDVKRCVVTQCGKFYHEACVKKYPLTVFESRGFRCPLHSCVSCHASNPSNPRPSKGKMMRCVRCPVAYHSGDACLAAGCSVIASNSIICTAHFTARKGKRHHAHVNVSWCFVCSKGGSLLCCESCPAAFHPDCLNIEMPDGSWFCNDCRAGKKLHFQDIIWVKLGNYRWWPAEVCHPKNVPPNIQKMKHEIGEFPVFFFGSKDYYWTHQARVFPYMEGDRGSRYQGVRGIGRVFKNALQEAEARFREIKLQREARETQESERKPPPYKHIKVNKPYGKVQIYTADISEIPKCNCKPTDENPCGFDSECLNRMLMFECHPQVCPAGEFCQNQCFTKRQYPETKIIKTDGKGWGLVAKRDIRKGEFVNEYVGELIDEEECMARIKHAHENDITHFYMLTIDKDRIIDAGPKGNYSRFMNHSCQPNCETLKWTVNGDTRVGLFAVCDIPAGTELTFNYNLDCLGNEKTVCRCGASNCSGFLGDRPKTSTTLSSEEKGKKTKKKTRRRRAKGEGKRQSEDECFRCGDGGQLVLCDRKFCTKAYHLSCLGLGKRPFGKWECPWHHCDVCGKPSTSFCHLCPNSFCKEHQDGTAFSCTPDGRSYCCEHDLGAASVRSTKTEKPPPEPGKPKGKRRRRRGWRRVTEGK
The class given is biochemical.

Another assay has as its system INS1. Kind of assay: beta cell apoptosis inhibitors, cytokine rescue, dose response, luminescence, retest (AID 449756).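 Further: cell death triggered by IL-1 beta plus TNF-alpha plus IFN-gamma mixture; protective hits raise ATP signal compared with cytokine alone wells.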 The class given is functional, cell-based. Particulars: Rattus norvegicus.

The source made the active and inactive calls. Bounds are passed on as bounds.

Sequence of Estrogen receptor beta (Q92731 whole entry): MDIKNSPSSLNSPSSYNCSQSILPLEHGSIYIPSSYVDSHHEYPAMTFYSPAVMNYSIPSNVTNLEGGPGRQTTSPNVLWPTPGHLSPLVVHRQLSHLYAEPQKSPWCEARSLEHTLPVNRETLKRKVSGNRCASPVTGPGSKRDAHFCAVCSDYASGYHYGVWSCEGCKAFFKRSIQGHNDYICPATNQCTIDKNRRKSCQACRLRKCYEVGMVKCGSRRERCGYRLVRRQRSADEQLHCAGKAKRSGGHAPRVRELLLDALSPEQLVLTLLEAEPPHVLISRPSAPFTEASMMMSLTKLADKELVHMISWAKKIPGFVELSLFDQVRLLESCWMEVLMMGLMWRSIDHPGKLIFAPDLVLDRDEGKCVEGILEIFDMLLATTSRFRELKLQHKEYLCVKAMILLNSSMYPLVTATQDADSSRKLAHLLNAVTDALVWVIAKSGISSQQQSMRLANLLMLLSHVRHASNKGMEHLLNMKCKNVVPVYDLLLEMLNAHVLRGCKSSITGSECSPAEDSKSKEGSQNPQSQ

For `CC(C)Cn1c(-c2cccs2)nc2ccccc21`, the IC50 against Estrogen receptor beta is reported as > 50 µM (not active).
Regarding `CO[C@H]1CN(C)C(=O)c2cc(NC(=O)c3cccc(F)c3)ccc2OC[C@H](C)N(C)C[C@H]1C`, in assay [1], the AC50 is 22.8 µM (active).
`CCOc1ccc(NC(=O)CN(C)C(=O)c2ccc(COc3ccccc3)cc2)cc1OCC`: in assay [2], the IC50 is > 100 µM (inactive).
On to `O=C(Nc1ccc(Cl)cc1)N1C[C@@H]2[C@H](c3ccccc31)[C@@H](CO)N2CC1CCCCC1`, for which the AC50 in assay [1] is 5.79 µM (active).
With `COCCN1C=C2C(=O)C(C)(OC(=O)CCC(=O)OC)C(=O)C(Br)=C2C=C1c1ccc(OC)cc1` (stereo unspecified), in assay [2], the IC50 is 11 µM (active).
As to `C[C@H](CO)N1C[C@H](C)[C@H](CN(C)Cc2ccc(-c3ccccc3)cc2)OCc2ccccc2-c2ccccc2C1=O`, the AC50 was 5.19 µM (active) in assay [3] and > 39 µM (inactive) in assay [4].
With `O=C(Cc1cccnc1)N1CCCCN2[C@H](C1)[C@H](c1ccc(C#CC3CCCC3)cc1)[C@@H]2CO`, the AC50 in assay [5] was 9.02 µM (active); on Paired box protein Pax-8, 5.07 µM (active).
For the molecule `CCCCOC(=O)c1c(C)oc2ccc(NS(=O)(=O)c3ccc4c5c(cccc35)C(=O)N4)cc12`, the CC50 in assay [6] was > 40 µM (active). For the same molecule, in assay [7], the half-maximal activity concentration (AC50) was 9.4 µM (active). In addition, the IC50 at Estrogen receptor beta is 13.5 µM (active).
As for `COc1ccccc1NC(=O)N1C[C@@H]2N[C@H](C1)[C@H]2c1ccc(/C=C/c2ccccc2)cc1`, the AC50 in assay [3] is 3.04 µM (active); in assay [1], 4.56 µM (active).
Consider `Cc1nc(N2[C@H](CO)[C@H](c3ccccc3)[C@H]2CNCC2CCCC2)sc1C`, for which the concentration at half-maximal activity (AC50) in assay [3] was 2.26 µM (active); in assay [4], > 39 µM (inactive); in [8] it was 1.12 µM (active); in [9], 1.42 µM (active); in [10], 1.4 µM (active).
Consider `N#Cc1ccc(-c2ccc([C@@H]3[C@@H]4CN(C(=O)c5ccc6c(c5)OCO6)C[C@H]3N4)cc2)cc1`, for which the AC50 is 29.1 µM (active) in assay [5] and 8.39 µM (active) on Paired box protein Pax-8.
Turning to `COc1ccc(C(C(=O)NC2CCCC2)N(C(=O)c2ccco2)c2ccc3c(c2)OCO3)cc1OC` (stereo unspecified), the IC50 at Estrogen receptor beta was > 50 µM (not active).
For the molecule `CCCCn1c(N)c(N(CCC(C)C)C(=O)COC(=O)c2ccc([N+](=O)[O-])s2)c(=O)[nH]c1=O`, the AC50 in assay [11] was 12.3 µM (active); at Paired box protein Pax-8, 8.14 µM (active).
Turning to `O=C(Nc1ccc2c(c1)[C@@H]1C[C@@H](CC(=O)N3CCc4ccccc4C3)O[C@@H](CO)[C@@H]1O2)c1ccc2c(c1)OCO2`, the AC50 in assay [1] is 13 µM (active).
`CC(C)N(C[C@H]1N[C@H](CO)[C@@H]1c1ccc(C2=CCCCC2)cc1)C(=O)CN(C)C`: the half-maximal activity concentration (AC50) in assay [3] was 1.34 µM (active); in assay [4], 10.8 µM (active).
For `N#Cc1cccc(-c2ccc([C@@H]3[C@@H]4CN(Cc5ccccc5)C[C@H]3N4)cc2)c1` the same measures were 5.57 µM (active) and 15.4 µM (active).
For the molecule `CCCCn1cc[n+](C2=C([N-]S(=O)(=O)c3ccc(Br)cc3)C(=O)c3ccccc3C2=O)c1`, in the assay on INS1, the AC50 was 2.86 µM (active). Further, the concentration for half-maximal inhibition (IC50) in assay [2] is 8.28 µM (active).
`CCN(CC)CCNC(=O)c1ccc(CS(=O)(=O)c2ccccc2C)o1`: in [11], the AC50 was > 20 µM (inactive).
As to `Cc1cccc(-c2ccc([C@H]3[C@@H](CO)N4CCCCN(CCC(F)(F)F)C[C@H]34)cc2)c1`, the concentration at half-maximal activity (AC50) in [3] was 1.01 µM (active); in [4], 8.62 µM (active).
For `O=C(c1ccc2c(c1)OCO2)N1C[C@@H]2N[C@H](C1)[C@@H]2c1ccc(/C=C/c2ccccc2)cc1` the same measures were 4.03 µM (active) and 11.5 µM (active).

Broadly, the IC50 is the midpoint of a concentration-inhibition curve. For orientation: AC50 means the concentration giving half of the maximal activity seen.
